Earlier results, collected in PubChem BioAssay AID1259409 (Chemical Carcinogenesis Research Information System (CCRIS), 2018).

Test system: rodent chemically induced tumor inhibition, incidence and multiplicity
Assay: CCRIS tumor inhibitor studies
Conditions: Route [Inhibitor]: ORAL, Species: RAT, Promoter: NONE USED

O=P(O)(O)OC1C(OP(=O)(O)O)C(OP(=O)(O)O)C(OP(=O)(O)O)C(OP(=O)(O)O)C1OP(=O)(O)O (stereo unspecified)
tumour outcome (control, treated, inhibition, significance) (Carcinogen: 7,12-DIMETHYLBENZ[A]ANTHRACENE, 57-97-6, Dose [Inhibitor]: 0, 2% IN DIET FOR 35 WK BEGINNING POST CARCINOGEN DOSE (STUDY DURATION: 36 WK), Strain/Sex: SPRAGUE-DAWLEY/FEMALE, Target Tissue: Type of Lesion: EAR DUCT: TUMOR, Dose [Carcinogen]: 50 MG/KG BW IN CORN OIL ONCE): 5/15 (33%), 2/15 (13%), 61%, not significant | tumour outcome (control, treated, inhibition, significance) (Carcinogen: 7,12-DIMETHYLBENZ[A]ANTHRACENE, 57-97-6, Dose [Inhibitor]: 0, 2% IN DIET FOR 35 WK BEGINNING POST CARCINOGEN DOSE (STUDY DURATION: 36 WK), Strain/Sex: SPRAGUE-DAWLEY/FEMALE, Target Tissue: Type of Lesion: MAMMARY GLAND: ADENOCARCINOMA OR FIBROADENOMA, Dose [Carcinogen]: 50 MG/KG BW IN CORN OIL ONCE): 14/15 (93%), 15/15 (100%), -8%, not significant | tumour outcome (control, treated, inhibition, significance) (Carcinogen: 7,12-DIMETHYLBENZ[A]ANTHRACENE, 57-97-6, Dose [Inhibitor]: 0, 15 MILLIMOLAR IN DRINKING WATER BEGINNING 1 WK PRIOR TO CARCINOGEN DOSE AND CONTINUING FOR 16 WK (STUDY DURATION: 16, Strain/Sex: SPRAGUE-DAWLEY/FEMALE, Target Tissue: Type of Lesion: MAMMARY GLAND: CARCINOMA, Dose [Carcinogen]: 20 MG IN 1 ML SESAME OIL ONCE): 7/10 (70%), 17/21 (81%), -16%, not calculated | tumour outcome (control, treated, inhibition, significance) (Carcinogen: 7,12-DIMETHYLBENZ[A]ANTHRACENE, 57-97-6, Dose [Inhibitor]: 0, 15 MILLIMOLAR IN DRINKING WATER FOR 47 WK BEGINNING 2 WK PRIOR TO CARCINOGEN DOSE (STUDY DURATION: 47 WK), Strain/Sex: SPRAGUE-DAWLEY/FEMALE, Target Tissue: Type of Lesion: MAMMARY GLAND: TUMOR, Dose [Carcinogen]: 5 MG IN 1 ML CORN OIL ONCE): 37/40 (93%), 27/38 (71%), 24%, p<0.05 | tumour outcome (control, treated, inhibition, significance) (Carcinogen: AZOXYMETHANE, 25843-45-2, Dose [Inhibitor]: 0, 2% IN A HIGH FAT LOW FIBER DIET FOR DURATION OF STUDY BEGINNING 3 WK PRIOR TO CARCINOGEN TREATMENT (STUDY DURATION: 3, Strain/Sex: SPRAGUE-DAWLEY/FEMALE, Target Tissue: Type of Lesion: COLON: TUMOR, Dose [Carcinogen]: 15 MG/KG BW 1/WK FOR 2 WK): 65%, 30%, 54%, p<0.05 | tumour outcome (control, treated, inhibition, significance) (Carcinogen: AZOXYMETHANE, 25843-45-2, Dose [Inhibitor]: 0, 2% IN DRINKING WATER BEGINNING 1 WK POST CARCINOGEN DOSE AND CONTINUING FOR DURATION OF STUDY (STUDY DURATION: 36 WK), Strain/Sex: F344/MALE, Target Tissue: Type of Lesion: COLON: CARCINOMA, Dose [Carcinogen]: 30 MG/KG ONCE AT 6 WK OF AGE): 10/12 (83%), 3/12 (25%), 70%, p=0.0045 | tumour outcome (control, treated, inhibition, significance) (Carcinogen: AZOXYMETHANE, 25843-45-2, Dose [Inhibitor]: 1% IN DRINKING WATER BEGINNING 1 WK PRIOR TO FIRST CARCINOGEN DOSE (STUDY DURATION: 9 MO), Strain/Sex: F344/MALE, Target Tissue: Type of Lesion: LARGE INTESTINE: CARCINOMA, Dose [Carcinogen]: 8 MG/KG BW INJECTED IN HIND LEG 1/WK FOR 12 WK): 100%, 100%, 0%, not significant | tumour outcome (control, treated, inhibition, significance) (Carcinogen: AZOXYMETHANE, 25843-45-2, Dose [Inhibitor]: 2% IN DRINKING WATER BEGINNING 2 WK POST LAST CARCINOGEN DOSE (STUDY DURATION: 10 MO), Strain/Sex: F344/MALE, Target Tissue: Type of Lesion: COLON: TUMOR, Dose [Carcinogen]: 8 MG/KG BW INJECTED IN HIND LEG 1/WK FOR 4 WK): 43%, 10%, 77%, not calculated | tumour outcome (control, treated, inhibition, significance) (Carcinogen: N-METHYL-N-NITROSOUREA, 684-93-5, AZOXYMETHANE, 25843-45-2, Carcinogen: N-METHYL-N-NITROSOUREA, 684-93-5, AZOXYMETHANE, 25843-45-2, Dose [Inhibitor]: 0, 2% IN A HIGH FAT LOW FIBER DIET FOR DURATION OF STUDY BEGINNING 2 WK PRIOR TO CARCINOGEN TREATMENT (STUDY DURATION: 3, Strain/Sex: SPRAGUE-DAWLEY/FEMALE, Target Tissue: Type of Lesion: COLON: TUMOR, Dose [Carcinogen]: 50 MG/KG BW MNU ONCE FOLLOWED BY 15 MG/KG BW AOM 1/WK FOR 2 WK): 70%, 30%, 57%, p<0.05 | tumour outcome (control, treated, inhibition, significance) (Carcinogen: N-METHYL-N-NITROSOUREA, 684-93-5, AZOXYMETHANE, 25843-45-2, Carcinogen: N-METHYL-N-NITROSOUREA, 684-93-5, AZOXYMETHANE, 25843-45-2, Dose [Inhibitor]: 0, 2% IN A HIGH FAT LOW FIBER DIET FOR DURATION OF STUDY BEGINNING 2 WK PRIOR TO CARCINOGEN TREATMENT (STUDY DURATION: 3, Strain/Sex: SPRAGUE-DAWLEY/FEMALE, Target Tissue: Type of Lesion: MAMMARY GLAND: CARCINOMA, Dose [Carcinogen]: 50 MG/KG BW MNU ONCE FOLLOWED BY 15 MG/KG BW AOM 1/WK FOR 2 WK): 100%, 50%, 50%, p<0.05 | tumour outcome (control, treated, inhibition, significance) (Carcinogen: N-METHYL-N-NITROSOUREA, 684-93-5, Dose [Inhibitor]: 0, 2% IN HIGH FAT LOW FIBER DIET FOR DURATION OF STUDY BEGINNING 2 WK PRIOR TO CARCINOGEN TREATMENT (STUDY DURATION: 32, Strain/Sex: SPRAGUE-DAWLEY/FEMALE, Target Tissue: Type of Lesion: MAMMARY GLAND: CARCINOMA, Dose [Carcinogen]: 50 MG/KG BW ONCE): 95%, 40%, 58%, p<0.05
